According to article PMC8213057, “Targeting ALK2: An Open Science Approach to Developing Therapeutics for the Treatment of Diffuse Intrinsic Pontine Glioma” (Journal of Medicinal Chemistry, 2020):

Columns and labels:
CDK3/cyclin E2 = CDK3/cyclin E2 (Homo sapiens, UniProt Q00526); settings: 1 μM; Run 1, Run 2
CDK1/cyclin A = CDK1/cyclin A (Homo sapiens, UniProt P06493); test: biochemical; settings: read-out: % enzyme activity, 1 μM; Run 1, Run 2
CSK = CSK (Homo sapiens, UniProt P41240); settings: 1 μM; Run 1, Run 2
GSK3a = GSK3a (Homo sapiens, UniProt P49840); settings: 1 μM; Run 1, Run 2
PKCg = PKCg (Homo sapiens, UniProt P05129); test: biochemical; settings: read-out: % enzyme activity, 1 μM; Run 1, Run 2
MEK1 = MEK1 (Homo sapiens, UniProt Q02750); test: biochemical; settings: read-out: % enzyme activity, 1 μM; Run 1, Run 2
COT1/MAP3K8 = COT1/MAP3K8 (Homo sapiens, UniProt P41279); test: biochemical; settings: read-out: % enzyme activity, 1 μM; Run 1, Run 2
SRPK1 = SRPK1 (Homo sapiens, UniProt Q96SB4); settings: 1 μM; Run 1, Run 2
LIMK2 = LIMK2 (Homo sapiens, UniProt P53671); settings: 1 μM; Run 1, Run 2
DYRK1B = DYRK1B (Homo sapiens, UniProt Q9Y463); test: biochemical; settings: read-out: % enzyme activity, 1 μM; Run 1, Run 2
PKG1a = target: T1, PKG1a (Homo sapiens, UniProt Q13976); test: biochemical; settings: read-out: % enzyme activity, 1 μM; Run 1, Run 2
T1 sequence (Q13976 1-671): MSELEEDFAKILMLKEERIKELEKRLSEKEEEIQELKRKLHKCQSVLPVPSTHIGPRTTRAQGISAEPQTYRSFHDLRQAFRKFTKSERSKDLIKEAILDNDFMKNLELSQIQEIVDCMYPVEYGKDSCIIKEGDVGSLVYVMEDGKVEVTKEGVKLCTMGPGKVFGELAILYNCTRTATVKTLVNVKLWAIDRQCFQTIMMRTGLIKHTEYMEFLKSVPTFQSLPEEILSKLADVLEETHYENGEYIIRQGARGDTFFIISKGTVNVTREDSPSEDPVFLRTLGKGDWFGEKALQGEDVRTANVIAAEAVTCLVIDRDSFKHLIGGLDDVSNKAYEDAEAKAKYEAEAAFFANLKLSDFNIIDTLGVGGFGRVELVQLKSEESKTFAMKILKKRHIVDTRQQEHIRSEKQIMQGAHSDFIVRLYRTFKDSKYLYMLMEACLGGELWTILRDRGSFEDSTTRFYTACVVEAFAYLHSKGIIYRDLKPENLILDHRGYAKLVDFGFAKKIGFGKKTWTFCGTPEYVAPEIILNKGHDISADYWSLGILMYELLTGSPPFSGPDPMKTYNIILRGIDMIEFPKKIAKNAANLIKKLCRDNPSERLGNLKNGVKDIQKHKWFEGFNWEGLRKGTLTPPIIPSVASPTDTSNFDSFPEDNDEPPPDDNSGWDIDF

CDK18/cyclin Y (PCTK3) = CDK18/cyclin Y (PCTK3) (Homo sapiens, UniProt Q07002); settings: 1 μM; Run 1, Run 2
BRSK1 = target: T2, BRSK1 (Homo sapiens, UniProt Q8TDC3); settings: 1 μM; Run 1, Run 2
T2 sequence (Q8TDC3 1-778): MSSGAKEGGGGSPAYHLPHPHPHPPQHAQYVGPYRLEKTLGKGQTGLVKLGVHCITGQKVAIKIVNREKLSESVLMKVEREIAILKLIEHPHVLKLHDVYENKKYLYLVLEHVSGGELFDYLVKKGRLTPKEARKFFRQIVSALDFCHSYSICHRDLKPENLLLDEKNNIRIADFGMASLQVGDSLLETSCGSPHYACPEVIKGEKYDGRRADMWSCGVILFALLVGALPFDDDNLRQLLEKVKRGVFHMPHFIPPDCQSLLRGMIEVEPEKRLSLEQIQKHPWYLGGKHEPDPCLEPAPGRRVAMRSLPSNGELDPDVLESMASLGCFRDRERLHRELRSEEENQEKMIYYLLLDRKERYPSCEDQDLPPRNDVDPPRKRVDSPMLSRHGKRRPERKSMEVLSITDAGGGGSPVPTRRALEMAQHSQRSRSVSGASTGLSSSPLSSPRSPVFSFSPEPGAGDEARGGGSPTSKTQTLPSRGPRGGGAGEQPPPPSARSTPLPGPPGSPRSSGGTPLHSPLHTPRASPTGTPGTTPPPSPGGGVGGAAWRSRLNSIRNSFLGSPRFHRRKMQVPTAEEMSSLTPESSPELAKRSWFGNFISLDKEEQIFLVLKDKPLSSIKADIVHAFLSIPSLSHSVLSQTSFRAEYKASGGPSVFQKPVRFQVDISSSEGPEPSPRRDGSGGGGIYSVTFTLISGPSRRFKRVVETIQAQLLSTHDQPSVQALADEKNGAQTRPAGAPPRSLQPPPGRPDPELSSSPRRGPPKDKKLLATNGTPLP

SGK2 = SGK2 (Homo sapiens, UniProt Q9HBY8); settings: 1 μM; Run 1, Run 2
NEK4 = NEK4 (Homo sapiens, UniProt P51957); settings: 1 μM; Run 1, Run 2
CDK19/cyclin C = CDK19/cyclin C (Homo sapiens, UniProt Q9BWU1); test: biochemical; settings: read-out: % enzyme activity, 1 μM; Run 1, Run 2
CDK8/cyclin C = CDK8/cyclin C (Homo sapiens, UniProt P49336); test: biochemical; settings: read-out: % enzyme activity, 1 μM; Run 1, Run 2

Chain of CDK19/cyclin C (Q9BWU1 whole entry): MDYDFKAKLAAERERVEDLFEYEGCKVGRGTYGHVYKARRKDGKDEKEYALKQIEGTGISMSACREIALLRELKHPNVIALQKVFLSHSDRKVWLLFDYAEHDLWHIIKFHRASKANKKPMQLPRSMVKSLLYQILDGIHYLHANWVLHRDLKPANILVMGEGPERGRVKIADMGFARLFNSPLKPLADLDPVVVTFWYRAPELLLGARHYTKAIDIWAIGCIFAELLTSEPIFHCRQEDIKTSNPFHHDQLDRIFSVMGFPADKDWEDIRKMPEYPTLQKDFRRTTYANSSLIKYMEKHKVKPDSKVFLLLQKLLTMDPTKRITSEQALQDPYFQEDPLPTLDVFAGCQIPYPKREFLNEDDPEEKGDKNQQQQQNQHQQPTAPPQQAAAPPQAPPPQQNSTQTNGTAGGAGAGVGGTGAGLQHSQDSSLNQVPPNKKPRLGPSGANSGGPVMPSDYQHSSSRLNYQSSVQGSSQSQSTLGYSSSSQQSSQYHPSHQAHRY
Chain of CDK19/cyclin C (P24863 whole entry partner): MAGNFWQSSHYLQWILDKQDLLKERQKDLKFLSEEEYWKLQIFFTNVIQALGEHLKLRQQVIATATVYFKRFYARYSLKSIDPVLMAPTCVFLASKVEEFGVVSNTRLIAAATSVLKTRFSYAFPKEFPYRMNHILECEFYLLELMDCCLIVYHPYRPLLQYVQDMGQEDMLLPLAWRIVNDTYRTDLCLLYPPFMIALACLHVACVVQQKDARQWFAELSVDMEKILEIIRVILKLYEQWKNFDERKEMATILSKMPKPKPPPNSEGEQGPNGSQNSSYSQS
Chain of GSK3a (P49840 whole entry): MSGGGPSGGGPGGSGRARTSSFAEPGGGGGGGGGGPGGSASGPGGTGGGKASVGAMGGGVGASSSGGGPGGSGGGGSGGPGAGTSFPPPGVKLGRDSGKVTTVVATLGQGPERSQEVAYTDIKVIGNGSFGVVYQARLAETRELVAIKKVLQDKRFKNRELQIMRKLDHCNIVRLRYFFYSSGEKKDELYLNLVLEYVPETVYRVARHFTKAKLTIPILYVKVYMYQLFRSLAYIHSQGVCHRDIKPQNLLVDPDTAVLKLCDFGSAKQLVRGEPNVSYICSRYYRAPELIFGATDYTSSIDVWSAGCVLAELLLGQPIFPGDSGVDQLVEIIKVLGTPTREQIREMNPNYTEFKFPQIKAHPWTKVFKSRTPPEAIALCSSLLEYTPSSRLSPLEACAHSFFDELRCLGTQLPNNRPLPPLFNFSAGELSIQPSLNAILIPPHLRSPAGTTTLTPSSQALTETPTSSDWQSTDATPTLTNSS
Chain of CSK (P41240 whole entry): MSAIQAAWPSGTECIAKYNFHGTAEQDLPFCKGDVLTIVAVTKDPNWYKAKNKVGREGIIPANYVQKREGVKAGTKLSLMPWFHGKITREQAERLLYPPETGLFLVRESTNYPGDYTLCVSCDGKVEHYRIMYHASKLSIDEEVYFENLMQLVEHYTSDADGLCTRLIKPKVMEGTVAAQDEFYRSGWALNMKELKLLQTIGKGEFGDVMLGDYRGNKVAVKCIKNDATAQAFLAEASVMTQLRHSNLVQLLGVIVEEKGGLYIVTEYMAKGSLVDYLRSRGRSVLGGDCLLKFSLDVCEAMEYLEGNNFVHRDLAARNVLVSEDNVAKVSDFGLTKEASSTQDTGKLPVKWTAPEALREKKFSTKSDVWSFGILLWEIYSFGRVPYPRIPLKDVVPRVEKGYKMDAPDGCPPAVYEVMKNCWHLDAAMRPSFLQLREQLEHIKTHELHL
Chain of SRPK1 (Q96SB4 whole entry): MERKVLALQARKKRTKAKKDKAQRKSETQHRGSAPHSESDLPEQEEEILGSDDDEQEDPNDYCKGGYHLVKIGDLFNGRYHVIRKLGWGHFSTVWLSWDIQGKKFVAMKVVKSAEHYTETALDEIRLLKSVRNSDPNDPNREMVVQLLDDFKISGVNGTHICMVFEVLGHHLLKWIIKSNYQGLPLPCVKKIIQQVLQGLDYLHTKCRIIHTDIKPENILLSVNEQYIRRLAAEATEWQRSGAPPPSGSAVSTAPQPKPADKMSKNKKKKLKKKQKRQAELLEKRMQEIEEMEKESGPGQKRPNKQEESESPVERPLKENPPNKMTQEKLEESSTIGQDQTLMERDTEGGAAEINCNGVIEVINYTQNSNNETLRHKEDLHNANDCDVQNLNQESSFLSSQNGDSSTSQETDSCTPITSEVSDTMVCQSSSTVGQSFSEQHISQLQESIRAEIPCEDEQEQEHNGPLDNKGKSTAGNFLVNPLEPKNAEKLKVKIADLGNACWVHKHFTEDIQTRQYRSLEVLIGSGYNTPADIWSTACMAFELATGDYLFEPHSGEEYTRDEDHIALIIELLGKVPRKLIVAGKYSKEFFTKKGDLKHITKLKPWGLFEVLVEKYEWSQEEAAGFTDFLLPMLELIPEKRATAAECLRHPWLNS
Chain of CDK18/cyclin Y (PCTK3) (Q07002 whole entry): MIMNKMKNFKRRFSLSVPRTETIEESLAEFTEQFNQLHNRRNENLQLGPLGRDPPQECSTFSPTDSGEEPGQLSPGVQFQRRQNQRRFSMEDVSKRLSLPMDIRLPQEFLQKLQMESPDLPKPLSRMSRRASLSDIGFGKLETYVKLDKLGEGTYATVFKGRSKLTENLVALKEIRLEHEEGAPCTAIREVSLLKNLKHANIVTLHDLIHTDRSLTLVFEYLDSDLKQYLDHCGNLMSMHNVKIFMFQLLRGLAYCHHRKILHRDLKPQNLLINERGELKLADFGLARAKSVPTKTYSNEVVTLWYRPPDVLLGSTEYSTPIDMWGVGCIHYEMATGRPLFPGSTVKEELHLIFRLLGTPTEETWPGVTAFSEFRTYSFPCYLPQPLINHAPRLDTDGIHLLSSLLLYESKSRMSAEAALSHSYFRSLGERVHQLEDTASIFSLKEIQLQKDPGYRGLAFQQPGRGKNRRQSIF
Chain of CDK18/cyclin Y (PCTK3) (Q8ND76 whole entry partner): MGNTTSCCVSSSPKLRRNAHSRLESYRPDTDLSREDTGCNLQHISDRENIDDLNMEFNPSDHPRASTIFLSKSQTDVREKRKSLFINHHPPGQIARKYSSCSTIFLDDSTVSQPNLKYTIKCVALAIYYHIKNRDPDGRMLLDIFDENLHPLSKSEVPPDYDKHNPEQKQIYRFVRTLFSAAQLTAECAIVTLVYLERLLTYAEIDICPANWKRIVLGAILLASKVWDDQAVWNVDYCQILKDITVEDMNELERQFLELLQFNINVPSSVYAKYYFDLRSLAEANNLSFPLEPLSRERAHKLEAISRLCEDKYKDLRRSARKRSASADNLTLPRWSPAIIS
Chain of NEK4 (P51957 whole entry): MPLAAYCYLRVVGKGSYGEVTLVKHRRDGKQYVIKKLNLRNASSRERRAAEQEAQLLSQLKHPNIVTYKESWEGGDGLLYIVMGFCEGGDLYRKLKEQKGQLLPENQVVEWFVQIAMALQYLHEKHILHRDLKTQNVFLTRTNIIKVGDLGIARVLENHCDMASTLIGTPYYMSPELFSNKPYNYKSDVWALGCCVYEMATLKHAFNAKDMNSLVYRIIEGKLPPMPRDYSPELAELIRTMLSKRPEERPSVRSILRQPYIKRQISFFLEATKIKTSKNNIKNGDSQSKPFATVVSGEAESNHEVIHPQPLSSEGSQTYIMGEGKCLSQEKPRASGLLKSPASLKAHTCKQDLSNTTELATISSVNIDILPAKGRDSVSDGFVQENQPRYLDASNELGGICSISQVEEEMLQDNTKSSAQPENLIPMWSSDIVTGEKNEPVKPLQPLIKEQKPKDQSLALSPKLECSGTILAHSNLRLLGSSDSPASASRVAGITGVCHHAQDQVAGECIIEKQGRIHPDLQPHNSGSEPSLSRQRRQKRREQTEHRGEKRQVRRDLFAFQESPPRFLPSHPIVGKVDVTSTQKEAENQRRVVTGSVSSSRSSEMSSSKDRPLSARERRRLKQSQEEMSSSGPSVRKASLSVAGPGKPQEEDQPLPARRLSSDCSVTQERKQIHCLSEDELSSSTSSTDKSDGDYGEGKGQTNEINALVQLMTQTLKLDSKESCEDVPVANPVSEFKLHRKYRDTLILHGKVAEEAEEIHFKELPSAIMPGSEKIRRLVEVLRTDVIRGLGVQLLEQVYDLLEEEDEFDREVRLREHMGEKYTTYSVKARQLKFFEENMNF
Chain of CDK1/cyclin A (P20248 whole entry): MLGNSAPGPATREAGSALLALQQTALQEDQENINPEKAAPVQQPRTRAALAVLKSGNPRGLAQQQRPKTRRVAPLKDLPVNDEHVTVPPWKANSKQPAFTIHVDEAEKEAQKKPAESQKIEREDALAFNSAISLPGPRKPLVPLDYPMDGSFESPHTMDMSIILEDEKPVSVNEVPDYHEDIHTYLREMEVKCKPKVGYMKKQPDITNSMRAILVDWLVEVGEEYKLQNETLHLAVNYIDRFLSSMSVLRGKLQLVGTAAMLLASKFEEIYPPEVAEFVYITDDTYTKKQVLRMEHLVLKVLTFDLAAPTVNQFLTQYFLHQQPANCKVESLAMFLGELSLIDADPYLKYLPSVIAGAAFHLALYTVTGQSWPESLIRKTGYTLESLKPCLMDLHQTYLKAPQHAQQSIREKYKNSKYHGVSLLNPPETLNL
Chain of CDK1/cyclin A (P06493 whole entry): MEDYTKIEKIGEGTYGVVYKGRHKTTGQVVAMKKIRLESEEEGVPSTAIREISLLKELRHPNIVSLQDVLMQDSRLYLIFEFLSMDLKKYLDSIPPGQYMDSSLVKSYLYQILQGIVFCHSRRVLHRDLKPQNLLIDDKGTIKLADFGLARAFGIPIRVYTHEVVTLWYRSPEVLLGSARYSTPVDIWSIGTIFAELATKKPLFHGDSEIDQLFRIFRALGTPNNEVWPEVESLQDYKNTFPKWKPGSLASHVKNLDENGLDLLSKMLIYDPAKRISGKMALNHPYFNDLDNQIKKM

COc1cc(-c2cncc(-c3ccc(N4CCN(C)CC4)cc3)c2C)cc(F)c1C(N)=O [Compound 26a, 2-Fluoro-6-methoxy-4-(4-methyl-5-(4-(4-methylpiperazin-1-yl)phenyl)pyridin-3-yl)benzamide]
% enzyme activity (CDK3/cyclin E2): 88.05%
remaining activity at 1 µM (CDK1/cyclin A): 94.7%
% enzyme activity (CSK): 99.36%
% enzyme activity (GSK3a): 100.80%
remaining activity at 1 µM (PKCg): 97%
remaining activity at 1 µM (MEK1): 97.5%
remaining activity at 1 µM (COT1/MAP3K8): 88.7%
% enzyme activity (SRPK1): 105.40%
% enzyme activity (LIMK2): 99.63%
remaining activity at 1 µM (DYRK1B): 40.6%
remaining activity at 1 µM (PKG1a): 97.9%
% enzyme activity (CDK18/cyclin Y (PCTK3)): 100.43%
% enzyme activity (BRSK1): 83.89%
% enzyme activity (SGK2): 100.43%
% enzyme activity (NEK4): 97.67%
remaining activity at 1 µM (CDK19/cyclin C): 79.1%
remaining activity at 1 µM (CDK8/cyclin C): 84.6%

COc1cc(-c2cncc(-c3ccc(N4C[C@@H](C)N(C)[C@@H](C)C4)cc3)c2C)cc(F)c1C(N)=O [Compound 26c, 2-Fluoro-6-methoxy-4-(4-methyl-5-(4-((3R,5S)-3,4,5-trimethylpiperazin-1-yl)phenyl)pyridin-3-yl)benzamide]
% enzyme activity (CDK3/cyclin E2): 83.94%
remaining activity at 1 µM (CDK1/cyclin A): 90.8%
% enzyme activity (CSK): 102.04%
% enzyme activity (GSK3a): 101.44%
remaining activity at 1 µM (PKCg): 97.2%
remaining activity at 1 µM (MEK1): 95.1%
remaining activity at 1 µM (COT1/MAP3K8): 92.9%
% enzyme activity (SRPK1): 81.70%
% enzyme activity (LIMK2): 95.75%
remaining activity at 1 µM (DYRK1B): 59.2%
remaining activity at 1 µM (PKG1a): 102%
% enzyme activity (CDK18/cyclin Y (PCTK3)): 97.60%
% enzyme activity (BRSK1): 78.18%
% enzyme activity (SGK2): 100.91%
% enzyme activity (NEK4): 97.25%
remaining activity at 1 µM (CDK19/cyclin C): 87.1%
remaining activity at 1 µM (CDK8/cyclin C): 93.1%
